Reference: patent US20250092035A1, “ISOCITRATE DEHYDROGENASE 1 INHIBITORS AND METHODS OF USE THEREOF” (THE WISTAR INSTITUTE OF ANATOMY AND BIOLOGY, priority 2022, published 2025)
pIC50, pKi: −log10 of the molar value. Read-outs that look alike come from different tables or passages of the source.

What was measured:
[1] = target: T1, IDH1 (Homo sapiens, UniProt O75874); assay: IC50 in two trials and mean (Example 1, assay not described); assay type: biochemical
[2] = target: T1, IDH1; assay: IC50 dose-response curve fits (Example 1, assay not described); assay type: biochemical; conditions: for pIC50: curve fit; for Bottom / Slope / Top: curve-fit parameter
[3] = Microsomal stability (mouse liver microsome assay)
[4] = Mouse pharmacokinetics study; conditions: CD-1, mouse, plasma, ip, 10 mg/kg
[5] = tested on: MiaPaCa2 xenograft
Experimental: In vivo studies. […] Mice were maintained under pathogen-free conditions in the animal facility. No additional food or nutrient-contained bedding provided to the animals during these studies. […] Mice with subcutaneous PDX were purchased from The Jackson Laboratory (#TM01212). […] Mice were imaged weekly to monitor tumor progression and tumor volume was assessed for each mouse and plotted longitudinally. […] All experiments with KPC mice were performed under a UK Home Office license and approved by the University of Glasgow Animal Welfare and Ethical Review Board. […] Tamoxifen dissolved in corn oil at 20 mg/ml, and animals received tamoxifen (75 mg/kg, IP administration, once daily) for six consecutive days. For flank xenograft experiments, 1×10^6 cells were suspended in 200 μL of a PBS:matrigel solution (1:1) and injected subcutaneously into the right flank of mice. For orthotopic experiments, 4×10^4 Luciferase-expressing KPC K8484 cells were suspended in 50 μL of a PBS:matrigel solution (1:1) and injected into the pancreas of C57BL/6 mice at 12 weeks of age. Equal number of male and female mice were used. Mice were anesthetized using isoflurane gas. After ensuring appropriate depth of anesthesia, a 0.5 cm left subcostal incision was made to gain access into the peritoneal cavity. The tail of the pancreas was externalized and the mixture was carefully injected into the pancreas. […]

[6] = target: T1, IDH1; assay: Two-step binding kinetics (Example 1, assay not described)
[7] = reported (ref. 52); cited from earlier work
[8] = Trial 1, read-out: IC50, Trial 1
[9] = Trial 2, read-out: IC50, Trial 2
[10] = mean of the trials, read-out: Mean IC50
[11] = 1st step, read-out: KiAPP (affinity for 1st step)
[12] = 2nd step, read-out: KiAPP* (affinity for 2nd step)

T1 sequence (O75874 whole entry): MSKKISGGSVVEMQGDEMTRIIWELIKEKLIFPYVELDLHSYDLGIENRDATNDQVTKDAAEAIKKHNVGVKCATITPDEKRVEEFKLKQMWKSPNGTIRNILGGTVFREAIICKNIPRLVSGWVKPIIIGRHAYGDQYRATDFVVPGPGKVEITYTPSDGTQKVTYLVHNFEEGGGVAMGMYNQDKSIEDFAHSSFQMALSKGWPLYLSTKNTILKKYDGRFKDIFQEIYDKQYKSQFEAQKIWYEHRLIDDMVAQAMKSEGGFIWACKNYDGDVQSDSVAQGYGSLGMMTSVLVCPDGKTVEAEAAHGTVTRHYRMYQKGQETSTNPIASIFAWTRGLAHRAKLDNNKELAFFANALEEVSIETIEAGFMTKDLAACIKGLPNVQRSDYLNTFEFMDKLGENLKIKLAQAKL

| SMILES | pIC50 [1, 8] | pIC50 [1, 9] | pIC50 [1, 10] | other results |
| --- | --- | --- | --- | --- |
| CC1(C)CN(C(=O)c2ccc[nH]2)Cc2c(C(=O)Nc3cccc(C(N)=O)c3)nn(Cc3ccc(F)cc3)c21 [FSM-2-95] | 6.51 | 6.53 | 6.52 | – |
| CC1(C)CN(C(=O)c2cccs2)Cc2c(C(=O)Nc3cccc(C(N)=O)c3)nn(Cc3ccc(F)cc3)c21 [FSM-2-96] | 6.58 | 6.60 | 6.59 | – |
| CC1(C)CN(C(=O)c2ccc[nH]2)Cc2c(C(=O)Nc3cccc(C(=O)O)c3)nn(Cc3ccc(F)cc3)c21 [FSM-2-97] | < 5.00 | 5.11 | 5.11 | – |
| CC1(C)CN(C(=O)c2cccs2)Cc2c(C(=O)Nc3cccc(C(=O)O)c3)nn(Cc3ccc(F)cc3)c21 [FSM-2-98] | 5.20 | 5.30 | 5.25 | – |
| CC1(C)CN(C(=O)c2ccc[nH]2)Cc2c(C(=O)Nc3ncco3)nn(Cc3ccc(F)cc3)c21 [FSM-2-113] | 5.90 | 5.98 | 5.94 | – |
| CC1(C)CN(C(=O)c2cccs2)Cc2c(C(=O)Nc3ncco3)nn(Cc3ccc(F)cc3)c21 [FSM-2-114] | 5.86 | 5.91 | 5.89 | – |
| CC1(C)CN(C(=O)c2ccc[nH]2)Cc2c(C(=O)Nc3nccs3)nn(Cc3ccc(F)cc3)c21 [FSM-2-115] | < 5.00 | < 5.00 | < 5.00 | – |
| CC1(C)CN(C(=O)c2cccs2)Cc2c(C(=O)Nc3nccs3)nn(Cc3ccc(F)cc3)c21 [FSM-2-116] | < 5.00 | 5.09 | 5.09 | – |
| COc1ccc(NC(=O)c2nn(Cc3ccc(C(F)(F)F)cc3)c3c2CN(C(=O)c2ccc[nH]2)CC3(C)C)cc1 [FSM-2-275] | – | – | – | pIC50 [2]: 8.48; Bottom [2]: 3.6; Slope [2]: 1.3; Top [2]: 99.1 |
| COc1ccc(NC(=O)c2nn(Cc3ccc(C(F)(F)F)cc3)c3c2CN(C(=O)c2cccs2)CC3(C)C)cc1 [FSM-2-276] | – | – | – | pIC50 [2]: 8.55; Bottom [2]: 15.8; Slope [2]: 1.4; Top [2]: 98.9 |
| COc1cccc(NC(=O)c2nn(Cc3ccc(C(F)(F)F)cc3)c3c2CN(C(=O)c2ccc[nH]2)CC3(C)C)c1 [FSM-2-277] | – | – | – | pIC50 [2]: 8.54; Bottom [2]: 11.8; Slope [2]: 1.0; Top [2]: 99.3 |
| COc1cccc(NC(=O)c2nn(Cc3ccc(C(F)(F)F)cc3)c3c2CN(C(=O)c2cccs2)CC3(C)C)c1 [FSM-2-278] | – | – | – | pIC50 [2]: 8.54; Bottom [2]: 4.6; Slope [2]: 1.0; Top [2]: 98.0 |
| CC(O)c1cccc(NC(=O)c2nn(Cc3ccc(C(F)(F)F)cc3)c3c2CN(C(=O)c2cn[nH]c2)CC3(C)C)c1 (stereo not shown) [FSM-2-302] | – | – | – | half-life at 0.5 μM ([3]; liver microsomes): 56.6 min; pIC50 [2]: 7.44; Bottom [2]: 4.0; Slope [2]: 1.0; Top [2]: 97.9 |
| CC1(C)CN(C(=O)c2cn[nH]c2)Cc2c(C(=O)Nc3ccc(F)cc3)nn(Cc3ccc(C(F)(F)F)cc3)c21 [FSM-3-002, N-(4-Fluorophenyl)-7,7-dimethyl-5-(1H-pyrazole-4-carbonyl)-1-(4-(trifluoromethyl)benzyl)-4,5,6,7-tetrahydro-1H-pyrazolo[4,3-c]pyridine-3-carboxamide] | – | – | – | Cmax [4]: 2320 ng/mL; xenograft growth ([5]; 75 mg/kg IP once daily): marked reduction in MiaPaCa2 xenograft growth; tolerability ([5]; mouse, in vivo, ip, 75 mg/kg): well-tolerated; half-life at 0.5 μM ([3]; liver microsomes): 147 min |
| CC1(C)CN(C(=O)c2cn[nH]c2)Cc2c(C(=O)Nc3cccc(F)c3)nn(Cc3ccc(C(F)(F)F)cc3)c21 [FSM-3-02] | – | – | – | pIC50 [2]: 6.95; Bottom [2]: −0.9; Slope [2]: 1.0; Top [2]: 95.0 |
| Cc1ncsc1-c1ccc(CNC(=O)[C@@H]2C[C@@H](O)CN2C(=O)C(NC(=O)CCCCCCOc2cccc(NC(=O)c3nn(Cc4ccc(F)cc4)c4c3CN(C(=O)c3ccc[nH]3)CC4(C)C)c2)C(C)(C)C)cc1 (stereo partly shown) [FSM-3-17] | – | – | – | half-life at 0.5 μM ([3]; liver microsomes): 19.5 min |
| CC1(C)CN(C(=O)c2cn[nH]c2)Cc2c(C(=O)Nc3cccc(NC(=O)CCCl)c3)nn(Cc3ccc(C(F)(F)F)cc3)c21 [FSM-05-141] | – | – | – | k5 (on rate for 2nd step, min−1) [6]: 0.257 min⁻¹; k6 (off rate for 2nd step) [6]: 0.002 min⁻¹; pKi [6, 11]: 4.90; pKi [6, 12]: 7.09 |
| C=CC(=O)Nc1cccc(NC(=O)c2nn(Cc3ccc(C(F)(F)F)cc3)c3c2CN(C(=O)c2cn[nH]c2)CC3(C)C)c1 [FSM-05-157] | – | – | – | k5 (on rate for 2nd step, min−1) [6]: 0.306 min⁻¹; k6 (off rate for 2nd step) [6]: 0.001 min⁻¹; pKi [6, 11]: 4.63; pKi [6, 12]: 7.19 |
| C[C@@H]1CN(C(=O)c2ccc[nH]2)Cc2c(C(=O)Nc3cccc([C@@H](C)O)c3)nn(Cc3ccc(F)cc3)c21 [FSM-206, reference compound] | – | – | – | bioavailability [7]: poor bioavailability; Bottom [2]: −0.8; Slope [2]: 1.0; Top [2]: 98.0 |
| CC1(C)CN(C(=O)c2ccc[nH]2)Cc2c(C(=O)Nc3cccc(C(=O)NC4CC4)c3)nn(Cc3ccc(F)cc3)c21 [IAP-1-23] | 5.99 | 6.02 | 6.00 | – |
| CC1(C)CN(C(=O)c2ccc[nH]2)Cc2c(C(=O)Nc3cccc(C(=O)NC4CCCC4)c3)nn(Cc3ccc(F)cc3)c21 [IAP-1-34] | 7.06 | 7.02 | 7.04 | – |
| CC1(C)CN(C(=O)c2cccs2)Cc2c(C(=O)Nc3cccc(C(=O)NC4CCCC4)c3)nn(Cc3ccc(F)cc3)c21 [IAP-1-35] | 7.16 | 7.15 | 7.16 | – |
| CC1(C)CN(C(=O)c2cccs2)Cc2c(C(=O)Nc3cccc(C(=O)NC4CCCCC4)c3)nn(Cc3ccc(F)cc3)c21 [IAP-1-37] | 7.72 | 7.74 | 7.72 | – |
| CC(O)c1cccc(NC(=O)c2nn(Cc3ccc(F)cc3)c3c2CN(C(=O)c2cccn2C)CC3(C)C)c1 (stereo not shown) [IAP-1-39] | 7.35 | 7.33 | 7.34 | – |
| Cc1c[nH]c(C(=O)N2Cc3c(C(=O)Nc4cccc(C(C)O)c4)nn(Cc4ccc(F)cc4)c3C(C)(C)C2)c1 (stereo not shown) [IAP-1-40] | 6.28 | 6.32 | 6.30 | – |
| Cc1ncc2n1-c1ccc(Cl)cc1C(c1ccccc1F)=NC2 [Midazolam, reference compound] | – | – | – | half-life at 0.5 μM ([3]; microsomes): 1.76 min |
| Cn1cccc1C(=O)N1Cc2c(C(=O)Nc3ccccc3)nn(Cc3ccc(F)cc3)c2C(C)(C)C1 [VV-1-19] | 7.14 | 7.14 | 7.14 | – |
